# Test results published in patent US20100204219A1, “AROMATIC 1,4-DI-CARBOXYLAMIDES AND THEIR USE” (priority 2006, published 2010).
# Target: T1, βCat-BCL9 (beta-Catenin/BCL9-BCL9L interaction) (Homo sapiens, UniProt P35222)
# T1 sequence (P35222 1-781): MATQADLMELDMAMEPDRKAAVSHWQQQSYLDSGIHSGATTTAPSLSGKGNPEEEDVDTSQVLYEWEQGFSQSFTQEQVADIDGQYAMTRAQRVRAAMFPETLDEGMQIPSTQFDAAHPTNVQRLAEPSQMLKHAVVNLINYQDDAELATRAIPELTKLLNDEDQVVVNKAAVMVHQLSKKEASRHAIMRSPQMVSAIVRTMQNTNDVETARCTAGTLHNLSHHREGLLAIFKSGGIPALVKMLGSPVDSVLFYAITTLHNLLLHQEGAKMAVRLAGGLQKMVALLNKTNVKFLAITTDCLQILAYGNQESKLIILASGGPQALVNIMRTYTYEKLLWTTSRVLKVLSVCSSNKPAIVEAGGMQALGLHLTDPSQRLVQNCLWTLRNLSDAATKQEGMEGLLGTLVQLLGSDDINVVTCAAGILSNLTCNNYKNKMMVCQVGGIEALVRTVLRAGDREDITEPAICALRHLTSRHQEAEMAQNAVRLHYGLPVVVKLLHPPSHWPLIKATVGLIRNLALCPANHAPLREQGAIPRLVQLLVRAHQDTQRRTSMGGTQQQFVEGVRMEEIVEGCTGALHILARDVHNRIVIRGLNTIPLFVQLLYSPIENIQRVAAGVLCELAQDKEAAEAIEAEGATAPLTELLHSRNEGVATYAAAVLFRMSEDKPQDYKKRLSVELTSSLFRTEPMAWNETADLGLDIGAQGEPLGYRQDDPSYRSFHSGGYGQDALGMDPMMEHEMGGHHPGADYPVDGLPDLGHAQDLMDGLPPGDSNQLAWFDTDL
# Assay: ELISA based protein-protein interaction assay, βCat-BCL9
# Type: binding
# Conditions: Example 1
# Source text: cDNAs including the binding domains of Lgs and beta-Catenin were fused down-stream of glutathione-S-transferase (GST) cDNA in pGEX-4T inducible bacterial expression vector (Pharmacia). Similar recombinant DNA constructs were generated in the pET-32a(+) vector (Novagen) for expression of fusion protein containing the Thioredoxine-6His tag at their N-terminus. Fusion proteins were produced in BL21 bacteria (e.g. Stratagene) following manufacturer's recommendation.
# To isolate the produced fusions protein, bacteria were ground in aluminum oxide (Sigma, A2039) and the resulting powder extracted in lysis buffer (140 mM NaCl, 10 mM Na2HPO4, 1.8 mM KH2PO4, 2.7 mM KCl, 1 mM EDTA, 1% Triton-X-100, 1 mM DTT and protease inhibitors) under rotation for 30 minutes. Supernatants were cleared by centrifugation then filtered on a 0.45 μm membrane before protein purification. For GST tagged protein, lysate were processed on glutathione agarose beads following manufacturer's recommendation (Amersham Pharmacia) and purified proteins eluted in 50 mM Tris-Cl, 10 mM reduced glutathione pH8.0. For thioredoxine-6His fusions, tagged proteins were purified from the lysate on a nickel chelating column (e.g. Hitrap chelating, G.E. Healthcare) using an HPLC system (e.g. Akta Prime, G.E. Healthcare) and eluted under increasing concentration of imidazole. The purified proteins solution was dialyzed against PBS before use. The quality of the preparations was checked by SDS-gel electrophoresis by standard methods well known by persons skilled in the art.
# Compound preparation: Compounds can be prepared as 25 mM stock in DMSO and diluted in DMSO to reach final test concentrations of up to 100 μM. Final DMSO concentration in the assay is 5%.
# 100 μl of GST fusion protein (e.g. GST-βCatenin) diluted to the appropriate concentration in phosphate buffer saline are added per well to a 96 well plate with high protein binding capacity (e.g. Nunc Maxisorp) and placed at 4° C. overnight. The following day the liquid in the wells is discarded and 150 μl 3% bovine serum albumin (BSA) in PBS are added to each well and incubated at room temperature for 2 hours under moderate shaking. This solution is then discarded and each well washed twice with 200 μl PBS. After carefully discarding the second wash, a mixture of 5 μl compound dilution and 95 μl 6His fusion protein (e.g. 6His-Bcl9) diluted to the appropriate concentration in PBS is added to each well. The plate is then incubated for 1 hour at room temperature under moderate shaking. This protein solution is then discarded and the wells washed 3 times with 200 μl 0.1% Tween-20 solution in PBS. After carefully discarding the final wash, 100 μl of anti 6His antibody conjugated to the horse-radish peroxidase (e.g. Roche antibody 11965085001) at the appropriate dilution in 1% BSA in PBS is added to the wells and the plate incubated for 1 hour at room temperature under moderate shaking. This solution is then discarded and the wells washed 3 times with 200 μl 0.1% Tween-20 solution in PBS. After carefully discarding the final wash, 100 μl of HRP substrate […] (TMB) in solution (e.g. Sigma T0440) is added to the wells and the plate incubated up to 30 minutes in the dark at room temperature. The reaction is stopped by addition of 100 μl of 2N HCl to each well and the optical density is measured at 450 nm and 630 nm.
row,SMILES,IC50 [µM]
1,Cc1cc(NC(=O)c2ccc(C(=O)Nc3cc(C)on3)nc2)no1 [TG00011289],> 50
2,COc1cc(-c2ccc(NC(=O)c3cc(-c4ccc(C)o4)nc4ccccc34)c(OC)c2)ccc1NC(=O)c1cc(-c2ccc(C)o2)nc2ccccc12 [TGC0000161],> 50
3,O=C(Nc1cc(C(F)(F)F)ccc1Cl)c1ccc(C(=O)Nc2cc(C(F)(F)F)ccc2Cl)nc1 [TGC0011278],> 100
4,CC(=O)Nc1cccc(NC(=O)c2ccc(C(=O)Nc3cccc(NC(C)=O)c3)nc2)c1 [TGC0011279],> 100
5,CCN(CC)c1ccc(NC(=O)c2ccc(C(=O)Nc3ccc(N(CC)CC)cc3)nc2)cc1 [TGC0011281],> 100
6,COc1ccc(Cl)cc1NC(=O)c1ccc(C(=O)Nc2cc(Cl)ccc2OC)nc1 [TGC0011282],> 100
7,CC(C)NC(=O)c1ccc(C(=O)NC(C)C)nc1 [TGC0011283],> 100
8,O=C(NCc1ccccc1)c1ccc(C(=O)NCc2ccccc2)nc1 [TGC0011284],> 100
9,O=C(Nc1ccccc1)c1ccc(C(=O)Nc2ccccc2)nc1 [TGC0011286],> 100
10,O=C(Nc1ccc(F)c(Cl)c1)c1ccc(C(=O)Nc2ccc(F)c(Cl)c2)nc1 [TGC0011287],> 100
11,O=C(NCc1ccc(F)cc1)c1ccc(C(=O)NCc2ccc(F)cc2)nc1 [TGC0011337],> 10
12,CC(=O)c1cccc(NC(=O)c2ccc(C(=O)Nc3cccc(C(C)=O)c3)nc2)c1 [TGC0011338],> 10
13,O=C(NCc1ccc(Cl)cc1)c1ccc(C(=O)NCc2ccc(Cl)cc2)nc1 [TGC0011339],> 10
14,O=C(NCCc1cccc(Cl)c1)c1ccc(C(=O)NCCc2cccc(Cl)c2)nc1 [TGC0011340],> 20
15,Cc1cc(I)ccc1NC(=O)c1ccc(C(=O)Nc2ccc(I)cc2C)nc1 [TGC0011341],> 10
16,CC(C)(C)C1CCc2c(sc(NC(=O)c3ccc(C(=O)Nc4sc5c(c4C#N)CCC(C(C)(C)C)C5)nc3)c2C#N)C1 (stereo not drawn) [TGC0011343],> 100
17,O=C(NCC1CCCO1)c1ccc(C(=O)NCC2CCCO2)nc1 (stereo not drawn) [TGC0011424],> 50
18,O=C(c1ccc(C(=O)N2CCCc3ccccc32)nc1)N1CCCc2ccccc21 [TGC0011425],> 25
19,O=C(c1ccc(C(=O)N2CCOCC2)nc1)N1CCOCC1 [TGC0011426],> 50
20,COc1ccc(CNC(=O)c2ccc(C(=O)NCc3ccc(OC)cc3)nc2)cc1 [TGC0011427],> 25
21,O=C(c1ccc(C(=O)N2CCC(Cc3ccccc3)CC2)nc1)N1CCC(Cc2ccccc2)CC1 [TGC0011429],> 25
22,O=C(Nc1ccc2c(c1)OCO2)c1ccc(C(=O)Nc2ccc3c(c2)OCO3)nc1 [TGC0011431],> 50
23,CCCCc1ccc(NC(=O)c2ccc(C(=O)Nc3ccc(CCCC)cc3)nc2)cc1 [TGC0011433],> 50
24,O=C(NCCC1=CCCCC1)c1ccc(C(=O)NCCC2=CCCCC2)nc1 [TGC0011435],> 50
25,CC(CCc1ccccc1)NC(=O)c1ccc(C(=O)NC(C)CCc2ccccc2)nc1 (stereo not drawn) [TGC0011436],> 10
26,CCC(C)NC(=O)c1ccc(C(=O)NC(C)CC)nc1 (stereo not drawn) [TGC0011437],> 50
27,COc1ccccc1CCNC(=O)c1ccc(C(=O)NCCc2ccccc2OC)nc1 [TGC0011445],> 10

row,SMILES,IC50 [µM]
1,COc1cccc(CCNC(=O)c2ccc(C(=O)NCCc3cccc(OC)c3)nc2)c1 [TGC0011446],> 10
2,O=C(NCCc1ccc(F)cc1)c1ccc(C(=O)NCCc2ccc(F)cc2)nc1 [TGC0011447],> 50
3,O=C(NCCc1ccc2c(c1)OCO2)c1ccc(C(=O)NCCc2ccc3c(c2)OCO3)nc1 [TGC0011448],> 10
4,O=C(NCCc1cccc(C(F)(F)F)c1)c1ccc(C(=O)NCCc2cccc(C(F)(F)F)c2)nc1 [TGC0011452],> 10
5,O=C(NCCc1ccccc1OC(F)(F)F)c1ccc(C(=O)NCCc2ccccc2OC(F)(F)F)nc1 [TGC0011454],> 100
6,O=C(NCCc1ccccn1)c1ccc(C(=O)NCCc2ccccn2)nc1 [TGC0011455],> 100
7,COc1cccc(CCNC(=O)c2ccc(C(=O)NCCc3cccc(OC)c3OC)nc2)c1OC [TGC0011456],> 100
8,COc1ccc(OC)c(CCNC(=O)c2ccc(C(=O)NCCc3cc(OC)ccc3OC)nc2)c1 [TGC0011457],> 100
9,CC(=O)Nc1ccc(-c2cnc(-c3ccc(NC(C)=O)cc3)nc2)cc1 [TGC0011524],> 100
10,CC(C)(C)C(=O)Nc1ccc(-c2cnc(-c3ccc(NC(=O)C(C)(C)C)cc3)nc2)cc1 [TGC0011525],> 10
11,O=C(Nc1ccc(-c2cnc(-c3ccc(NC(=O)C(F)(F)F)cc3)nc2)cc1)C(F)(F)F [TGC0011526],> 100
12,CC(C)(C)C(=O)Nc1cccc(C(=O)Nc2ccc(-c3cnc(-c4ccc(NC(=O)c5cccc(NC(=O)C(C)(C)C)c5)cc4)nc3)cc2)c1 [TGC0011527],> 10
13,Cc1ccccc1C(=O)Nc1ccc(-c2cnc(-c3ccc(NC(=O)c4ccccc4C)cc3)nc2)cc1 [TGC0011529],> 100
14,O=C(Nc1ccc(-c2cnc(-c3ccc(NC(=O)c4ccccc4Cl)cc3)nc2)cc1)c1ccccc1Cl [TGC0011530],> 10
15,O=C(Nc1ccc(-c2cnc(-c3ccc(NC(=O)c4ccco4)cc3)nc2)cc1)c1ccco1 [TGC0011531],> 10
16,O=C(Nc1ccc(-c2cnc(-c3ccc(NC(=O)c4ccc(Br)cc4)cc3)nc2)cc1)c1ccc(Br)cc1 [TGC0011533],> 100
17,CC(C)(C)C(=O)Nc1ccc(C(=O)Nc2ccc(-c3cnc(-c4ccc(NC(=O)c5ccc(NC(=O)C(C)(C)C)cc5)cc4)nc3)cc2)cc1 [TGC0011534],> 100
18,O=C(COc1ccc(Br)cc1)Nc1ccc(-c2cnc(-c3ccc(NC(=O)COc4ccc(Br)cc4)cc3)nc2)cc1 [TGC0011565],> 100
19,COc1ccc(CCNC(=O)c2cnc(C(=O)NCCc3ccc(OC)c(OC)c3)cn2)cc1OC [TGC0011592],> 10
20,COc1ccc(CCNC(=O)c2ccc(C(=O)NCCc3ccc(OC)c(Cl)c3)nc2)cc1Cl [TGC0011593],> 100
21,O=C(Nc1cccnc1O)c1ccc(C(=O)Nc2cccnc2O)nc1 [TGC0012261],> 100
22,COc1ccc(CCNC(=O)c2ccc(-c3ccc(C(=O)NCCc4ccc(OC)c(OC)c4)cn3)nc2)cc1OC [TGC0012281],38
23,O=C(Nc1ccc(F)c(F)c1)c1ccc(C(=O)Nc2ccc(F)c(F)c2)nc1 [TGC0012289],> 50
24,O=C(O)c1ccc(NC(=O)c2ccc(C(=O)Nc3ccc(C(=O)O)cc3)cc2)cc1 [TGC0012290],> 50
25,COc1cc(C(=O)Nc2ccncc2)c(OC)cc1C(=O)Nc1ccncc1 [TGC0012291],> 50
26,CC(=O)Nc1ccc(NC(=O)c2ccc(C(=O)Nc3ccc(NC(C)=O)cc3)cc2)cc1 [TGC0012292],> 50
27,NC(=O)c1ccc(NC(=O)c2ccc(C(=O)Nc3ccc(C(N)=O)cc3)cc2)cc1 [TGC0012293],> 10
